Earlier results, collected in article PMC10223284, “Category-Based Toxicokinetic Evaluations of Data-Poor Per- and Polyfluoroalkyl Substances (PFAS) using Gas Chromatography Coupled with Mass Spectrometry” (Toxics, 2023).
Like-named read-outs stand apart in the source and are kept apart here.

Tested on: human primary cells
Conditions: cited from earlier work
[1] = BioSeek lowest-observed effect concentration used for AED
[2] = minimum lowest-observed effect concentration, BioSeek platform

Compound | LOEC [1] | LOEC [2]
OCC(F)(F)C(F)(F)C(F)(F)C(F)(F)C(F)(F)C(F)(F)C(F)(F)C(F)(F)CO [1H,1H,10H,10H-Perfluorodecane-1,10-diol] | 2.00 µM | 2 µM
NC(=O)C(F)(F)C(F)(F)C(F)(F)F [Heptafluorobutyramide] | 20.00 µM | 20 µM
OCCC(F)(F)C(F)(F)C(F)(F)C(F)(F)F [4:2 Fluorotelomer alcohol] | 2.00 µM | 2 µM
